Experimental data: US20120264231A1, “ASSAY FOR ORAI CALCIUM CHANNEL REGULATORS” (IMMUNE DISEASE INSTITUTE, INC., priority 2009, published 2012)

Key:
[1] = Pichia membrane flotation assay, control membranes; type: binding, Pichia pastoris; details: membranes from yeast not expressing ORAI1
Experimental: A membrane flotation assay was used to evaluate binding of these recombinant STIM 1 proteins to ORAI1. For these experiments ORAI1 (65-301) was expressed, an N-terminally truncated ORAI1 protein that forms functional Ca^2+ channels in mammalian cells (Li, Z., et al., J Biol Chem 282, 29448-29456 (2007)), in the yeast Pichia pastoris. Microsomal membranes were prepared from P pastoris expressing ORAI1 (65-301), layered at the bottom of a discontinuous sucrose gradient, and centrifuged. After centrifugation, the recombinant ORAI 1 was recovered near the top of the gradient in the fraction visually identified as containing membranes (FIG. 2A), as expected for an integral membrane protein.
Microsomal membranes, prepared from yeast Pichia pastoris expressing human ORAI1 (65-301) with an N-terminal FLAG tag and the substitutions E106Q and N223A, were resuspended in 10 mM HEPES pH 7.4, 150 mM NaCl, 1 mM DTT, 10% glycerol, briefly sonicated, brought to 25 mM EDTA by addition of EDTA from a concentrated stock, layered over a 0.5 M sucrose cushion, and centrifuged at 149,000×g for 1 h at 4° C. in a Beckman airfuge. […] FLAG-tagged ORAI1 was detected using anti-FLAG M2 monoclonal antibody (Sigma) and His-tagged STIM1^CT fragments were detected using anti-His-Tag monoclonal antibody (27E8 clone, Cell Signaling Technology).

ORAI1 (E106Q) = ORAI1 (E106Q) (Homo sapiens, UniProt Q96D31, E106Q); test: Cameleon D3 cpV intravesicular Ca^2+ assay, vesicles with ORAI1 (E106Q); type: biochemical; design: the ORAI functional fragment is ORAI1 (65-301), ORAI1 (65-87), or full length ORAI1; made in house; host or cells: S. cerevisiae NY17 (sec6-4), isolated secretory vesicles; details: vesicles containing ORAI1 (E106Q)
Chain of ORAI1 (E106Q) (Q96D31 2-301 E106Q): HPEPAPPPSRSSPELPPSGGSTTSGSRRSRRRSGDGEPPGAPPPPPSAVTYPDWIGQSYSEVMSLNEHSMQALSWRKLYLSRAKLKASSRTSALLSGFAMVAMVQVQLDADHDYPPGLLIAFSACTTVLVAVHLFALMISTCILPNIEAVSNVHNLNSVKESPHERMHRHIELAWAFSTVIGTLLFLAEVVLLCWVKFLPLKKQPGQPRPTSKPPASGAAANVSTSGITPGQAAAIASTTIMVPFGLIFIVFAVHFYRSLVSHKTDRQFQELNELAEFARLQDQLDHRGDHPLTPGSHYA
Excerpt: Confirmation that Ca^2+ release from the vesicles was due to gating of the ORAI 1 channel was sought. […] It was concluded that the in vitro assay reflects STIM 1-dependent gating of ORAI1 and Ca^2+ flux through the ORAI1 channel pore.
The yeast expression vector pBEVY-GU60 allows for simultaneous expression of two transgenes by means of the bidirectional GAL1-10 promoter. The FRET-based calcium sensors D3 cpV and D4 cpV53 were fused at the N-terminus with the S. cerevisiae α-mating factor secretion signal (Bitter, G. A., et al., Proc Natl Acad Sci USA 81, 5330-5334 (1984)), which directs proteins into the secretory pathway, and introduced into pBEVY-GU in the following way. Vector pPIC9 (Invitrogen) served as template for PCR amplification of the α-mating factor secretion signal (5′ primer: […] (SEQ ID NO: 2); 3′ primer: […] (SEQ ID NO: 3)), introducing an EcoRI site at the 5′ end, and a sequence complementary to that encoding the N-terminus of the calcium sensor at the 3′ end. DNA encoding the N-terminal portion of the calcium sensor D3 cpV, comprising CFP, was amplified by PCR (5′ primer: […] (SEQ ID NO: 4); 3′ primer: […] (SEQ ID NO: 5)), introducing an SphI site followed by a stop codon and a NotI site at the 3′ end of the resulting DNA fragment. […]

Substance: STIM1^CT: cytoplasmic region of STIM1, mouse residues 233-685, His-tagged recombinant protein expressed in E coli
- position in gradient with control membranes [1]: remained at the bottom of the gradient
- Ca^2+ release from vesicles (ORAI1 (E106Q)): did not elicit Ca^2+ release
